Laboratory results reported in US4355101A, “Phenylmercaptoazole compounds” (Polaroid Corporation, priority 1981, dated 1982).
Where two headings read alike, the source gives them in different places. Blank lines part the entries; values can stand above or below the compound they belong to.

Key:
[1] = pKa of substituents on the phenyl ring, measured for unblocked phenylmercaptotetrazole compounds; type: physicochemical; conditions: substituent on phenyl ring of unblocked phenylmercaptotetrazole
Excerpt: Table I lists the pKa of various substituents on the phenyl ring as measured for unblocked phenylmercaptotetrazole compounds.

[2] = Solubility of the silver salts in the presence of excess amounts of their anions; type: physicochemical; conditions: for Solubility of silver salt (total silver): 4×10^-3 molar in silver
Protocol: The solubilities of the silver salts of PMT and compound VIII in the presence of excess amounts of their anions were measured at pH 7.0 and 13.5. Each solution was 4×10^-3 molar in silver. The results are shown in Table III wherein the solubility data is expressed in μ moles/liter of total silver.

[3] = Solubility product of the silver salt; type: physicochemical; conditions: for Effect of pH / ionization on solubility of the silver salt: pH 7 vs pH 13.5
[4] = pH 7; Z.C.H. Tan, Photogr. Sci. Eng. 19, 17 (1975); cited from earlier work
[5] = Molar ratio Compound/Ag 1.25/1, pH 7.0
[6] = Molar ratio Compound/Ag 1.25/1, pH 13.5
[7] = Molar ratio Compound/Ag 1.75/1, pH 7.0
[8] = Molar ratio Compound/Ag 1.75/1, pH 13.5
[9] = Molar ratio Compound/Ag 2.13/1, pH 7.0
[10] = Molar ratio Compound/Ag 2.13/1, pH 13.5
[11] = Molar ratio Compound/Ag 2.5/1, pH 7.0
[12] = Molar ratio Compound/Ag 2.5/1, pH 13.5
[13] = Molar ratio Compound/Ag 4.5/1, pH 7.0
[14] = Molar ratio Compound/Ag 4.5/1, pH 13.5
[15] = Molar ratio Compound/Ag 7.5/1, pH 7.0
[16] = Molar ratio Compound/Ag 7.5/1, pH 13.5

SMILES: CC(=NO)c1ccc(-n2nnnc2S)cc1 [drawing 14]
- pKa [1]: 11.4

SMILES: Oc1ccccc1-n1nnnc1S [(o) OH]
- pKa [1]: 9.5 ± 0.1

SMILES: NS(=O)(=O)c1ccc(-n2nnnc2S)cc1 [(p) SO2 NH2, 1-(4-sulfonamidophenyl)-5-mercaptotetrazole]
- pKa [1]: 9.95 ± 0.1

SMILES: CS(=O)(=O)Nc1ccc(-n2nnnc2S)cc1 [(p) NHSO2 CH3]
- pKa [1]: 8.65 ± 0.1

SMILES: Cc1ccc(S(=O)(=O)Nc2ccc(-n3nnnc3S)cc2)cc1
- pKa [1]: 8.8 ± 0.1

SMILES: Sc1nnnn1-c1ccccc1 [PMT, 1-phenyl-5-mercaptotetrazole]
- Solubility of silver salt (total silver) [2, 5]: < 1 μ moles/liter
- Solubility of silver salt (total silver) [2, 6]: 1 μ moles/liter
- Solubility of silver salt (total silver) [2, 7]: < 1 μ moles/liter
- Solubility of silver salt (total silver) [2, 8]: 2 μ moles/liter
- Solubility of silver salt (total silver) [2, 9]: 1 μ moles/liter
- Solubility of silver salt (total silver) [2, 10]: 4 μ moles/liter
- Solubility of silver salt (total silver) [2, 11]: 3 μ moles/liter
- Solubility of silver salt (total silver) [2, 12]: 8 μ moles/liter
- Solubility of silver salt (total silver) [2, 13]: 15 μ moles/liter
- Solubility of silver salt (total silver) [2, 14]: 18 μ moles/liter
- Solubility of silver salt (total silver) [2, 15]: 58 μ moles/liter
- Solubility of silver salt (total silver) [2, 16]: 63 μ moles/liter
- Ksp of silver salt [4]: ~3 × 10^-16
- Effect of pH / ionization on solubility of the silver salt [3]: relatively unaffected by pH
- Ksp of silver salt ([3]; pH 13.5): 4 × 10^-16

SMILES: CNS(=O)(=O)c1ccc(-n2nnnc2S)cc1 [(p) SO2 NHCH3]
- pKa [1]: 11.55 ± 0.1

Second part, led by results:

- pKa [1]: 9.55 ± 0.1
SMILES: O=S(=O)(Nc1ccccc1)c1ccc(-n2nnnc2S)cc1

- Solubility of silver salt (total silver) [2, 5]: < 1 μ moles/liter
- Solubility of silver salt (total silver) [2, 6]: 19 μ moles/liter
- Solubility of silver salt (total silver) [2, 7]: < 1 μ moles/liter
- Solubility of silver salt (total silver) [2, 8]: 44 μ moles/liter
- Solubility of silver salt (total silver) [2, 9]: < 1 μ moles/liter
- Solubility of silver salt (total silver) [2, 10]: 93 μ moles/liter
- Solubility of silver salt (total silver) [2, 11]: 2 μ moles/liter
- Solubility of silver salt (total silver) [2, 12]: 140 μ moles/liter
- Solubility of silver salt (total silver) [2, 13]: 2 μ moles/liter
- Solubility of silver salt (total silver) [2, 14]: 320 μ moles/liter
- Solubility of silver salt (total silver) [2, 15]: 5 μ moles/liter
- Solubility of silver salt (total silver) [2, 16]: 1400 μ moles/liter
- Silver solvent action ([2]; high pH): weak to moderate silver solvent
- Ksp of silver salt ([3]; pH 7): ~ 1 × 10^-16
- Ksp of silver salt ([3]; pH 13.5): 2 × 10^-15
SMILES: CC(=NO)c1ccc(-n2nnnc2S)cc1 [IX]
- Solubility of silver salt compared with PMT ([2]; neutral solution): even less soluble salt in neutral solution than does PMT
- Effect of pH / ionization on solubility of the silver salt [3]: increased the solubility of the silver salt of the compound VIII by an order of magnitude

- pKa [1]: 10.1 ± 0.1
SMILES: Oc1ccc(-n2nnnc2S)cc1 [(p) OH, 1-(4-hydroxyphenyl)-5-mercaptotetrazole]
